Measurements from patent publication US11813305B2, “Endoplasmic reticulum stress as a predictive tool in cancer therapy and a combination therapy for the treatment of cancer” (IMMUNE SYSTEM KEY LTD., priority 2016, dated 2023).
Square brackets hold non-standard residues; d marks the D form. Peptide text beside a SMILES is read from it.

How the values were obtained:
[1] = test system: healthy human peripheral immune cells; type: cell-based; conditions: data not shown
Excerpt: Therefore, without wishing to be bound by theory, dTCApFs appears to selectively affect cancer cells.

[2] = Safety and tolerability (adverse events, DLT, MTD), phase I study; type: in vivo, human
Excerpt: The present clinical study is a formal open label phase I dose escalation study. The primary objective was to determine the maximum tolerated dose (MTD) and safety profile of dTCApFs. Assessments included drug exposure, adverse events (AEs; graded according to the Common Terminology Criteria for Adverse Events (CTCAE), and characterization of dose-limiting toxicities (DLTs). Other objectives included assessment of serum levels of angiogenic factors after dTCApFs administration, pharmacokinetics (PK) and pharmacodynamics (PD) analyses, as well as assessment of receptor staining and tumor response. […]
Subjects with evaluable or measurable disease are assessed according to the response evaluation criteria in solid tumors (RECIST) version 1.1 every 2 cycles, where a cycle is defined as 4 weeks of treatment with three administrations per week. Tumor lesion measurements and changes from baseline are summarized by cycle and dose cohort.

In the case of CC(C)C[C@@H](NC(=O)[C@H](NC(=O)[C@@H](CO)NC(=O)[C@H]1CCCN1C(=O)[C@@H](CC(C)C)NC(=O)[C@@H](Cc1ccccc1)NC(=O)[C@@H](Cc1ccccc1)NC(=O)[C@H](NC(=O)[C@@H](Cc1c[nH]c2ccccc12)NC(=O)[C@H](N)Cc1c[nH]c2ccccc12)[C@H](C)O)[C@H](C)O)C(=O)N[C@H](Cc1c[nH]c2ccccc12)C(=O)N[C@H](CCC(=O)O)C(=O)N[C@H](CCCNC(=N)N)C(=O)N[C@H](CCCCN)C(=O)O [dTCApFs, Trp Trp Thr Phe Phe Leu Pro Ser Thr Leu Trp Glu Arg Lys] (H-[dW][dW][dT][dF][dF][dL][dP][dS][dT][dL][dW][dE][dR][dK]-OH; N-terminus and C-terminus assumed), the cell death [1] is reported as “only minor cell death occurred”, the “Adverse event Grade 1: Abdominal pain” value ([2]; 6 mg/m^2, n = 3) is reported as 0 and the “Adverse event Grade 1: Anemia” value ([2]; 6 mg/m^2, n = 3) is reported as 3. The “Adverse event Grade 1: Bowel obstruction” value ([2]; 6 mg/m^2, n = 3) was 1, the “Adverse event Grade 1: Dehydration” value ([2]; 6 mg/m^2, n = 3) was 0 and the “Adverse event Grade 1: Diarrhea” value ([2]; 6 mg/m^2, n = 3) was 0. For the same compound, the “Adverse event Grade 1: Fatigue” value ([2]; 6 mg/m^2, n = 3) was 0, the “Adverse event Grade 1: GI hemorrhage” value ([2]; 6 mg/m^2, n = 3) was 1 and the “Adverse event Grade 1: Hypertension” value ([2]; 6 mg/m^2, n = 3) was 3. For the same compound, the “Adverse event Grade 1: Increased INR” value ([2]; 6 mg/m^2, n = 3) was 0, the “Adverse event Grade 1: Neuropathy” value ([2]; 6 mg/m^2, n = 3) was 0 and the “Adverse event Grade 1: Vomiting” value ([2]; 6 mg/m^2, n = 3) was 2. For the same compound, the “Adverse event Grade 2: ALT increase” value ([2]; 6 mg/m^2, n = 3) was 0, the “Adverse event Grade 2: AST increase” value ([2]; 6 mg/m^2, n = 3) was 0 and the “Adverse event Grade 2: Bilirubin increase” value ([2]; 6 mg/m^2, n = 3) was 0. The “Adverse event Grade 2: Cough” value ([2]; 6 mg/m^2, n = 3) was 0, the “Adverse event Grade 2: Liver dysfunction” value ([2]; 6 mg/m^2, n = 3) was 0 and the “Adverse event Grade 2: Pain, leg” value ([2]; 6 mg/m^2, n = 3) was 0. The “Adverse event Grade 2: Pain, upper back” value ([2]; 6 mg/m^2, n = 3) was 0, the “Adverse event Grade 2: Pruritus” value ([2]; 6 mg/m^2, n = 3) was 0 and the “Adverse event Grade 2: Urinary tract infection” value ([2]; 6 mg/m^2, n = 3) was 0. The “Adverse event Grade 2: Urticaria” value ([2]; 6 mg/m^2, n = 3) was 0, the “Adverse event Grade 3: Bilirubin increase” value ([2]; 6 mg/m^2, n = 3) was 0 and the “Adverse event Grade 3: Bowel obstruction” value ([2]; 6 mg/m^2, n = 3) was 1. The “Adverse event Grade 3: Diarrhea” value ([2]; 6 mg/m^2, n = 3) was 0, the “Adverse event Grade 3: GI hemorrhage” value ([2]; 6 mg/m^2, n = 3) was 1 and the “Adverse event Grade 3: Hypertension” value ([2]; 6 mg/m^2, n = 3) was 2. The “Adverse event Grade 3: Increased INR” value ([2]; 6 mg/m^2, n = 3) was 0, the “Adverse event Grade 4: Vomiting” value ([2]; 6 mg/m^2, n = 3) was 0 and the “Adverse event Grade 1: Abdominal pain” value ([2]; 12 mg/m^2, n = 3) was 1. The “Adverse event Grade 1: Anemia” value ([2]; 12 mg/m^2, n = 3) was 0, the “Adverse event Grade 1: Bowel obstruction” value ([2]; 12 mg/m^2, n = 3) was 0 and the “Adverse event Grade 1: Dehydration” value ([2]; 12 mg/m^2, n = 3) was 0. For the same compound, the “Adverse event Grade 1: Diarrhea” value ([2]; 12 mg/m^2, n = 3) was 2, the “Adverse event Grade 1: Fatigue” value ([2]; 12 mg/m^2, n = 3) was 1 and the “Adverse event Grade 1: GI hemorrhage” value ([2]; 12 mg/m^2, n = 3) was 0. The “Adverse event Grade 1: Hypertension” value ([2]; 12 mg/m^2, n = 3) was 1, the “Adverse event Grade 1: Increased INR” value ([2]; 12 mg/m^2, n = 3) was 0 and the “Adverse event Grade 1: Neuropathy” value ([2]; 12 mg/m^2, n = 3) was 1. For the same compound, the “Adverse event Grade 1: Vomiting” value ([2]; 12 mg/m^2, n = 3) was 0, the “Adverse event Grade 2: ALT increase” value ([2]; 12 mg/m^2, n = 3) was 0 and the “Adverse event Grade 2: AST increase” value ([2]; 12 mg/m^2, n = 3) was 0. For the same compound, the “Adverse event Grade 2: Bilirubin increase” value ([2]; 12 mg/m^2, n = 3) was 0, the “Adverse event Grade 2: Cough” value ([2]; 12 mg/m^2, n = 3) was 1 and the “Adverse event Grade 2: Liver dysfunction” value ([2]; 12 mg/m^2, n = 3) was 0. For the same compound, the “Adverse event Grade 2: Pain, leg” value ([2]; 12 mg/m^2, n = 3) was 2, the “Adverse event Grade 2: Pain, upper back” value ([2]; 12 mg/m^2, n = 3) was 0 and the “Adverse event Grade 2: Pruritus” value ([2]; 12 mg/m^2, n = 3) was 0. For the same compound, the “Adverse event Grade 2: Urinary tract infection” value ([2]; 12 mg/m^2, n = 3) was 1, the “Adverse event Grade 2: Urticaria” value ([2]; 12 mg/m^2, n = 3) was 0 and the “Adverse event Grade 3: Bilirubin increase” value ([2]; 12 mg/m^2, n = 3) was 0. The “Adverse event Grade 3: Bowel obstruction” value ([2]; 12 mg/m^2, n = 3) was 0, the “Adverse event Grade 3: Diarrhea” value ([2]; 12 mg/m^2, n = 3) was 1 and the “Adverse event Grade 3: GI hemorrhage” value ([2]; 12 mg/m^2, n = 3) was 0. The “Adverse event Grade 3: Hypertension” value ([2]; 12 mg/m^2, n = 3) was 1, the “Adverse event Grade 3: Increased INR” value ([2]; 12 mg/m^2, n = 3) was 0 and the “Adverse event Grade 4: Vomiting” value ([2]; 12 mg/m^2, n = 3) was 0. For the same compound, the “Adverse event Grade 1: Abdominal pain” value ([2]; 24 mg/m^2, n = 3) was 2, the “Adverse event Grade 1: Anemia” value ([2]; 24 mg/m^2, n = 3) was 0 and the “Adverse event Grade 1: Bowel obstruction” value ([2]; 24 mg/m^2, n = 3) was 0. The “Adverse event Grade 1: Dehydration” value ([2]; 24 mg/m^2, n = 3) was 0, the “Adverse event Grade 1: Diarrhea” value ([2]; 24 mg/m^2, n = 3) was 0 and the “Adverse event Grade 1: Fatigue” value ([2]; 24 mg/m^2, n = 3) was 0. The “Adverse event Grade 1: GI hemorrhage” value ([2]; 24 mg/m^2, n = 3) was 0, the “Adverse event Grade 1: Hypertension” value ([2]; 24 mg/m^2, n = 3) was 1 and the “Adverse event Grade 1: Increased INR” value ([2]; 24 mg/m^2, n = 3) was 0. For the same compound, the “Adverse event Grade 1: Neuropathy” value ([2]; 24 mg/m^2, n = 3) was 1, the “Adverse event Grade 1: Vomiting” value ([2]; 24 mg/m^2, n = 3) was 0 and the “Adverse event Grade 2: ALT increase” value ([2]; 24 mg/m^2, n = 3) was 0. The “Adverse event Grade 2: AST increase” value ([2]; 24 mg/m^2, n = 3) was 0, the “Adverse event Grade 2: Bilirubin increase” value ([2]; 24 mg/m^2, n = 3) was 0 and the “Adverse event Grade 2: Cough” value ([2]; 24 mg/m^2, n = 3) was 0. For the same compound, the “Adverse event Grade 2: Liver dysfunction” value ([2]; 24 mg/m^2, n = 3) was 0.
